Experimental data as given in patent publication US6046231A, “Use of 4'-bromoflavone in a cancer chemopreventative composition and method” (The Board of Trustees of the University of Illinois, priority 1999, dated 2000).
“Also recorded” adds a separate entry of the source. Read-outs that look alike come from different tables or passages of the source.

Tests used:
Hepa 1c1c7 cells = experiment: Hepa 1c1c7 cell viability (cytotoxicity); type: cell-based, murine; conditions: for IC50: read-out: IC50, concentration for 50% inhibition of cell viability
quinone reductase (QR) [1] = experiment: QR activity in rat tissues after dietary administration; type: in vivo, Sprague Dawley rat
Description: Analysis of Quinone Reductase Activity and Glutathione Level in Rat Tissues. Spraque Dawley rats (n=10) at 43 days of age were placed on an appropriate experimental diet (5000, 2500, 1250, 625, and 312.5 mg/kg diet of 4'-BF) for three weeks. After three weeks, animals were sacrificed by carbon dioxide (CO2) asphyxiation. The livers, mammary glands, colons, stomachs, and lungs were collected, rinsed with saline, and frozen in liquid nitrogen and stored at -80° C. until enzyme activities were determined. Individual tissues (except mammary glands) were homogenized in 0.25 M sucrose and centrifuged at 15,000×g for 30 min at 4° C. The supernatant fluids were collected, 20% volume of 0.1 M CaCl2 in 0.25 M sucrose were added. After incubation at 0° C. for 30 min and further centrifuging at 15,000×g for 30 min at 4° C., a clear cytosolic fraction was used for enzyme assay. Mammary glands of each animal were pooled, homogenized in 1 ml ice-cold 0.1 M phosphate buffer pH 6.5 and centrifuged (15,000×g, 30 min at 4° C.), a clear supernatant suitable for enzyme assay resulted. Dicumarol-sensitive QR activity was measured in duplicate in 50 μl of suitable dilution of the tissue supernatant as described for the cellular system. GSH levels were assayed in duplicate using 96-well plates. […] The plates were shaken for 5-10 min and the extent of 2-nitro-5-thiobenzoic acid formation was monitored at 405 nm. A GSH standard curve was used to calculate the GSH content. GSH levels were expressed as nmol/mg protein.
Induction of Quinone Reductase Activity and Glutathione Level in Rat Tissues. Based on the results in cell cultures, 4'-BF was further evaluated for its inducing potency in rat liver, mammary gland, colon, stomach, and lung. […] The concentration of 4'-BF for maximum induction of GSH was about 1250 to about 2500 mg/kg diet, but varied for different organ sites.

H4IIE rat hepatoma cells = experiment: Toxicity in H4IIE rat hepatoma cells; type: cell-based
[2] = test system: QR ARE-CAT construct, HepG2 cells; experiment: CAT expression in HepG2 cells transfected with QR ARE-CAT; type: cell-based, human cells; rat QR gene; conditions: 10 μM, 48 h; p<0.0001; listed as 4'-BF
Description: (§1) Transcient Transfection Gene Expression Assay. Cultured HepG2 human hepatoma cells were transfected with three plasmid constructs (PDTD-1697CAT, XRE-CAT, ARE-CAT) containing various portions of the 5'-region of the QR gene fused to the CAT gene using the calcium phosphate precipitation method (J. Sambrook et al., Molecular cloning: A Laboratory Handbook, Ed. Chris Nolan, CHS Laboratory Press, 1989). After 4 hours of transfection, the cells were treated with 10% glycerol for 3 minutes and rinsed with PBS and switched to MEM, containing 100 units/ml penicillin G sodium, 100 units/ml streptomycin sulfate, nonessential amino acids, and 1 mM sodium pyruvate (Life Technologies Inc.) supplemented with 10% fetal bovine serum for 12-16 hours recovery. Then, test agents were added to the cells. After 48 hours of treatment with the test agents, cells were harvested with lysis buffer (Boehringer Mannheim Biochemical) and CAT protein expressions were assessed using a CAT ELISA kit (Boehringer Mannheim Biochemical). CAT enzyme expression was normalized for the protein content of each sample. All data were expressed as mean +/- SD. Means were compared using Student's t test with n=4.
(§2) This was further investigated in transient transfection experiments wherein human hepatoma cells were transfected with DNA constructs containing various portions of the 5' upstream promoter region of the QR gene linked to the CAT reporter gene by using the calcium phosphate precipitation method. Construct pDTD-1097CAT contains elements of the rat QR gene connected to the CAT construct gene. […]
(§3) In particular, FIG. 1 illustrates quantitation of CAT expression in HepG2 cells transfected with QR-CAT constructs. […] CAT expression (ng CAT/mg protein) was determined using a CAT ELISA, and the ratio of CAT expression between treated and control cells was calculated (ratio=treated/control).

[3] = test system: QR XRE-CAT construct, HepG2 cells; experiment: CAT expression in HepG2 cells transfected with QR XRE-CAT; type: cell-based, human cells; rat QR gene; conditions: 10 μM, 48 h; listed as 4'-BF
Description: as §1, §2, §3

cytochrome P4501A1 = experiment: Inhibition of TCDD-induced EROD activity; type: biochemical
quinone reductase (QR) [4] = experiment: Induction of quinone reductase (QR) in mouse liver and mammary glands (Table 3); type: in vivo

O=c1cc(-c2ccc(Br)cc2)oc2ccccc12 [4'-Bromoflavone]
IC50 (Hepa 1c1c7 cells; Hepa 1c1c7 cells): ≥ 166 µM | IC50 (Hepa 1c1c7 cells; Mus musculus, Hepa-1c1c7, Hepa 1c1c7 cells): > 166 µM | times less toxic than sulforaphane (Hepa 1c1c7 cells; compared to sulforaphane): about 15 times | QR activity induction, colon (quinone reductase (QR) [1]; colon, 312.5-5000 mg/kg diet, 3 weeks): 2.09-4.81 fold | QR activity in rat tissues (quinone reductase (QR) [1]; liver, mammary gland, colon, stomach, lung, short-term dietary, P<0.0001): significantly increased | QR activity induction, liver (quinone reductase (QR) [1]; liver, 312.5-5000 mg/kg diet, 3 weeks): 2.22-7.60 fold | QR activity induction, lung (quinone reductase (QR) [1]; lung, 312.5-5000 mg/kg diet, 3 weeks): 2.18-5.25 fold | QR activity induction, mammary gland (quinone reductase (QR) [1]; mammary gland, 312.5-5000 mg/kg diet, 3 weeks): 1.59-5.52 fold | QR activity induction, stomach (quinone reductase (QR) [1]; stomach, 312.5-5000 mg/kg diet, 3 weeks): 1.97-3.42 fold | toxicity in H4IIE cells (H4IIE rat hepatoma cells): no observed toxicity | CAT expression, QR ARE-CAT [2]: significantly (P<0.0001, students t test with n=4) induced | CAT expression, QR XRE-CAT [3]: Significant induction; also recorded: significantly (P<0.0001, students t test with n=4) induced | inhibition of TCDD-induced EROD activity (cytochrome P4501A1): significantly inhibit | QR (Treated/Control), Liver (quinone reductase (QR) [4]; liver): 5.27 | QR (Treated/Control), Mammary Gland (quinone reductase (QR) [4]; mammary gland): 2.66
